Test systems include DMS-273; DMS-114; XF498; DLD-1; M19-MEL; HOP-18; SNB-78; LXFL 529; RXF 631.
What all share (assay): NCI anticancer screen, dose series, 48 h

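A five-concentration, 48-hour dose response in 96-well plates underlies each endpoint, interpolated linearly between surrounding concentrations. At the GI50, growth is halved.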 The source made the active and inactive calls. No stated cut-off is given here; in the data, active = GI50 up to about 1.1 µM and inactive = higher.

Take `CC1(O)C=CC2CCC1C2O` (configuration not stated): the GI50 in the test on DMS-273 was 55.6 µM (inactive); with DMS-114, 17.7 µM (inactive); in the test on XF498, > 100 µM (inactive); with DLD-1 it was 58.7 µM (inactive); in the test with M19-MEL, > 100 µM (inactive); in the test on HOP-18, > 100 µM (inactive). Also, the GI50 with SNB-78 is > 100 µM (inactive); with LXFL 529, 78.9 µM (inactive).
`C[C@H](NC(=O)OC1C2C=CC(O)C1CC2)c1ccccc1` (some centres not stated): the GI50 was 24.4 µM (inactive) in the test on DMS-273; 60.8 µM (inactive) in the test on DMS-114; > 100 µM (inactive) in the test on XF498; 89.1 µM (inactive) in the test with DLD-1; > 100 µM (inactive) in the test on HOP-18; > 100 µM (inactive) in the test with SNB-78. For the same molecule, in the test on LXFL 529, the GI50 is > 100 µM (inactive).
`CC1OC(OCC2OC(Oc3c(-c4ccc(O)cc4)oc4cc(O)cc(O)c4c3=O)C(OC3OC(C)C(O)C(O)C3O)C(O)C2O)C(O)C(O)C1O` (configuration not stated): the GI50 in the test with DMS-273 is > 84.1 µM (inactive); with DMS-114, > 53.7 µM (inactive); in the test on XF498, > 100 µM (inactive); in the test with DLD-1, > 100 µM (inactive); in the test on M19-MEL, > 72.4 µM (inactive); with HOP-18, > 100 µM (inactive). Further, the GI50 with RXF 631, in the test on SNB-78 and with LXFL 529 was > 100 µM (inactive) in each case.
With `CC(=O)N/C(=C\c1ccccc1/C=C(\NC(C)=O)c1nc2cc(C)c(C)cc2[nH]1)c1nc2cc(C)c(C)cc2[nH]1`, the GI50 is 2.56 µM (inactive) with DMS-273; 0.23 µM (active) in the test on DMS-114; 15.6 µM (inactive) in the test on XF498; 19.2 µM (inactive) with DLD-1; 10.7 µM (inactive) in the test with M19-MEL; 10.7 µM (inactive) in the test with SNB-78. The GI50 in the test with LXFL 529 is 17.1 µM (inactive).
Consider `CCC(=O)O[C@@H]1C2C(OC(C)=O)C34COC(C)([C@@H]3C3C(C[C@]3(C)OC(C)=O)[C@@H](OC(=O)c3ccccc3)C4=O)[C@H](OC(C)=O)[C@@]2(OC(C)=O)C[C@@H]1C` (some centres not stated), for which the GI50 in the test with DMS-273 was 44.1 µM (inactive); in the test with DMS-114 it was 23.3 µM (inactive); in the test with DLD-1 it was > 100 µM (inactive); in the test with M19-MEL, 32.8 µM (inactive); with HOP-18 it was > 100 µM (inactive); in the test on RXF 631, 86.1 µM (inactive). Moreover, the GI50 in the test on SNB-78 is 5.5 µM (inactive); with LXFL 529, 34.9 µM (inactive).
As to `CC(C)N(C(=O)C12C3C4C1C1C4(C#N)C3C12C#N)C(C)C` (configuration not stated), the GI50 with DMS-114, in the test with XF498, with DLD-1, with M19-MEL, in the test on HOP-18 and in the test with RXF 631 was > 100 µM (inactive) each time. Also, the GI50 in the test with SNB-78 and in the test on LXFL 529 was > 100 µM (inactive) in each case.
As to `COc1ccc(C(=O)C(C(=O)CCC(=O)Nc2cccc(C(F)(F)F)c2)c2ccccc2)cc1` (configuration not stated), the GI50 is > 100 µM (inactive) in the test with DMS-273; 36.2 µM (inactive) with DMS-114; 54.1 µM (inactive) in the test with XF498; > 100 µM (inactive) in the test on DLD-1; 67.5 µM (inactive) with M19-MEL; > 100 µM (inactive) in the test with HOP-18. The GI50 was > 100 µM (inactive) in the test with SNB-78 and 62.2 µM (inactive) in the test with LXFL 529.
As for `C[C@@H]1CC2(C[C@@H](C)C3[C@@H](CC4(C)CCCC5C6=CC(O)(CC[C@]34C)OC6=CC(=O)OC5(C)C)O2)OC1=O` (some centres not stated), the GI50 in the test on DMS-273, with DMS-114, with XF498, in the test with DLD-1, in the test with HOP-18 and in the test on LXFL 529 was > 100 µM (inactive) each time.
As to `O=C(c1ccccc1)c1ccc2cccc(OC3OC(CO)C(O)C(O)C3O)c2n1` (configuration not stated), the GI50 with DMS-273, with DMS-114, in the test on XF498, with DLD-1, in the test on HOP-18 and in the test with SNB-78 was > 100 µM (inactive) each time. The GI50 in the test on LXFL 529 was > 100 µM (inactive).
`O=C(O)CNS(=O)(=O)c1ccc(NC(=O)c2ccc([N+](=O)[O-])cc2)cc1`: the GI50 in the test on DMS-273, in the test with XF498, with DLD-1, in the test with M19-MEL, in the test with HOP-18 and with RXF 631 was > 100 µM (inactive) in each case. For the same molecule, the GI50 in the test on LXFL 529 is > 100 µM (inactive).
Turning to `CN1C(=O)CN2C(Cl)(Cl)C2(c2ccccc2F)c2cc([N+](=O)[O-])ccc21` (configuration not stated), the GI50 in the test with DMS-273 was 39.4 µM (inactive); with DMS-114, 42.8 µM (inactive); in the test on DLD-1, 35.1 µM (inactive); in the test on M19-MEL it was 65.6 µM (inactive); in the test on LXFL 529, 58.1 µM (inactive).
Consider `OCC1O[C@H](O[C@@H]2CCCN3CC(O)C(O)[C@@H]23)C(O)C(O)C1O` (some centres not stated), for which the GI50 with DMS-273, in the test with DLD-1, with M19-MEL, in the test on HOP-18, in the test with RXF 631 and with SNB-78 was > 100 µM (inactive) throughout. Further, the GI50 in the test on LXFL 529 is > 100 µM (inactive).
Consider `COC[C@@H]1Cc2cc(OC)c3c(c2[C@H](c2ccc(OC)c(OC)c2)[C@H]1COC)OCO3` [HYPOPHYLLANTHIN], for which the GI50 with DMS-273 is > 100 µM (inactive); with DMS-114, > 100 µM (inactive); in the test with XF498 it was 19.1 µM (inactive); with DLD-1, 47.3 µM (inactive); with M19-MEL, > 100 µM (inactive); in the test with HOP-18, > 100 µM (inactive). Moreover, the GI50 with RXF 631 and with LXFL 529 was > 100 µM (inactive) in each case.
`O=C(/C=C/C1C(=O)NC(=O)NC1=O)CC(=O)C(=O)Nc1cc(Cl)c(Cl)cc1Cl`: the GI50 in the test with DMS-273, with DMS-114, in the test with XF498, in the test on DLD-1, in the test on M19-MEL and with HOP-18 was > 100 µM (inactive) in each case. Further, the GI50 in the test with SNB-78 and in the test on LXFL 529 was > 100 µM (inactive) each time.
With `c1ccc(/N=c2\snc3scc(-c4ccccc4)n23)cc1`, the GI50 in the test on DMS-273 was 38.8 µM (inactive); with DMS-114, 30.3 µM (inactive); with XF498, 32.1 µM (inactive); in the test on DLD-1, 36.9 µM (inactive); with M19-MEL, 32.3 µM (inactive); in the test with HOP-18, 24.8 µM (inactive). Moreover, the values for the GI50 in the test on RXF 631, in the test on SNB-78 and with LXFL 529 were 66.8 µM (inactive), 57.3 µM (inactive) and 33.5 µM (inactive), respectively.
Consider `Cc1ccc(C2C(Cl)C(=O)N2n2cnc3ccccc3c2=O)cc1` (configuration not stated), for which the GI50 was > 100 µM (inactive) in the test on DMS-273; > 100 µM (inactive) in the test with DMS-114; > 100 µM (inactive) with XF498; > 100 µM (inactive) in the test on DLD-1; > 100 µM (inactive) with M19-MEL; 18.1 µM (inactive) in the test with HOP-18. Moreover, the GI50 in the test on SNB-78 and with LXFL 529 was > 100 µM (inactive) each time.
Regarding `COc1cc(C2c3cc4c(cc3[C@@H](Nc3ccc(C(=O)O)cc3)C3COC(=O)[C@H]23)OCO4)cc(OC)c1O` (some centres not stated), the GI50 in the test with DMS-273 is 7.16 µM (inactive); in the test with M19-MEL it was 15.7 µM (inactive); in the test with SNB-78, 10.7 µM (inactive); with LXFL 529, 11 µM (inactive).
As to `COc1ccc(OC)c2c1CC(C(=O)O)(C(=O)O)CC2=O`, the GI50 in the test on DMS-114, in the test on SNB-78 and in the test on LXFL 529 was > 100 µM (inactive) in each case.
For the molecule `O=NN(CCCl)C(=O)N[C@H]1CC[C@@H](CC(=O)O)CC1`, the GI50 with DMS-273, in the test on DMS-114, with XF498, in the test on DLD-1, in the test on M19-MEL and with HOP-18 was > 100 µM (inactive) throughout. Besides, the GI50 with SNB-78 is > 100 µM (inactive).
As to `C=CCC12CC(=O)CCC1CC(=O)C2` (configuration not stated), the GI50 with DMS-273, in the test on DMS-114, with DLD-1, in the test on M19-MEL, with HOP-18 and in the test on SNB-78 was > 100 µM (inactive) in each case. Also, the GI50 with LXFL 529 is > 100 µM (inactive).
For `CCOC(=O)C1=C(C)N(NC(=O)OC)C2(N)N(NC(=O)OC)C(C)=C(C(=O)OCC)C12C#N` (configuration not stated), the GI50 in the test on DMS-273, with DMS-114, in the test with XF498, with DLD-1, with M19-MEL and in the test with LXFL 529 was > 100 µM (inactive) in each case.

(Values after ChEMBL document CHEMBL1201862, “PubChem BioAssay data set” (2004).)
